This note sets out measurements from US20240294522A1 (Lead Discovery Center GmbH, priority 2021, published 2024).

The structures appear in SMILES notation.

One test deals with T1, GRK2 (Homo sapiens, UniProt P25098).
T1 construct: purchased Thermo Scientific
T1 sequence (P25098 1-689): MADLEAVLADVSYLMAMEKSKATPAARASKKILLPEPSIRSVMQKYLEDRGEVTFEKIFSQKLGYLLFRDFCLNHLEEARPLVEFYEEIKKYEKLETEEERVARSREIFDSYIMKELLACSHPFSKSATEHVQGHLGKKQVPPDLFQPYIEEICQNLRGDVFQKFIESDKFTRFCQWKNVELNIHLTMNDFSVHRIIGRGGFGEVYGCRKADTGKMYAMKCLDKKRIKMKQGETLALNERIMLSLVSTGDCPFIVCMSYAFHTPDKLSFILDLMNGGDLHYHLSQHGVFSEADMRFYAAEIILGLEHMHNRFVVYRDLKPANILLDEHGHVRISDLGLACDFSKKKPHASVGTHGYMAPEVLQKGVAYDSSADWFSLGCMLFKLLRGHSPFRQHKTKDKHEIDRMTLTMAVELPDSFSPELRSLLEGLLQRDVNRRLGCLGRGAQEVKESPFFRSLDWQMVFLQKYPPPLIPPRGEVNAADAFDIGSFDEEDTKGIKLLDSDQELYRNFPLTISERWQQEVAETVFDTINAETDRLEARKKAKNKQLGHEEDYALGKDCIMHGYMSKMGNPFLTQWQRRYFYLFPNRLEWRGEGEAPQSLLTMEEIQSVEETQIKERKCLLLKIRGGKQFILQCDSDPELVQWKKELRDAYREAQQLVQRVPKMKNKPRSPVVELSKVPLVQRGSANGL
Put plainly: Lance Kinase Activity Assay, GRK2. The settings on record: biochemical Lance kinase activity assay; class symbols A-F; read-out: GRK2 LANCE Assay (IC-50). The gist of the method:
(§1)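 IC50s from sigmoidal dose-response over 0.0025-10 μM compound, with phosphorylated ULight substrate detected by Eu anti-phospho antibody FRET after EDTA quench.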

Another test has as its target T2, GRK5 (Homo sapiens, UniProt P34947).
T2 construct: purchased Thermo Scientific
As to the kind of experiment: Lance Kinase Activity Assay, GRK5. The settings on record: biochemical Lance kinase activity assay; class symbols A-F; read-out: GRK5 LANCE Assay (IC-50). Summed up: as §1

T2 sequence (P34947 whole entry): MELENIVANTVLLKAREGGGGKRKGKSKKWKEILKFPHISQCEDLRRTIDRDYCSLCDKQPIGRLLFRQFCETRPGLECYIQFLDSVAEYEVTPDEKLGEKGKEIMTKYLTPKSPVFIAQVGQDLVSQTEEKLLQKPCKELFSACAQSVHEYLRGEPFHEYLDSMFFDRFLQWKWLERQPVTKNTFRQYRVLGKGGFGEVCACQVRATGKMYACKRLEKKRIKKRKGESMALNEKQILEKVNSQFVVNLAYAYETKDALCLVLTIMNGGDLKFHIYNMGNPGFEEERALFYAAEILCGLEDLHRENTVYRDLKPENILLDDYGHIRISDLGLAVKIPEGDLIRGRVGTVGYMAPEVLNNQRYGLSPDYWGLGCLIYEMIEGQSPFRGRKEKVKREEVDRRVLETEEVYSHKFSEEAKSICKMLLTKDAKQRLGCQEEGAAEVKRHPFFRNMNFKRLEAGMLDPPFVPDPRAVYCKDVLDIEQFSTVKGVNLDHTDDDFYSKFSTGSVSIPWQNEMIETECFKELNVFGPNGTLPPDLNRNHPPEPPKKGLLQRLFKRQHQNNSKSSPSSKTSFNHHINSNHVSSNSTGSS

As for `COc1ccc([C@@H](C)NC(=O)/C(C#N)=C/c2c[nH]c3ncc(-c4ccc(C5CCN(C)CC5)cc4)cc23)cc1OC` [Example 132, (R,E)-2-cyano-N-(1-(3,4-dimethoxyphenyl)ethyl)-3-(5-(4-(1-methylpiperidin-4-yl)phenyl)-1H-pyrrolo[2,3-b]pyridin-3-yl)acrylamide], the IC50 is 500 to 1000 nM on GRK2 and no more than 50 nM at GRK5.

As to `COc1ccc([C@@H](C)NC(=O)/C(C#N)=C/c2c[nH]c3ncc(-c4cccc(OCCCN(C)C)c4)cc23)cc1OC` [Example 133], the IC50 at GRK2 and at GRK5 was 1000 to 10000 nM throughout.

Take `COc1ccc([C@@H](C)NC(=O)/C(C#N)=C/c2c[nH]c3ncc(-c4ccc(CCN(C)C)cc4)cc23)cc1OC` [Example 134]: the IC50 was 1000 to 10000 nM on GRK2 and no more than 50 nM on GRK5.

For the compound `COc1ccc([C@@H](C)NC(=O)/C(C#N)=C/c2c[nH]c3ncc(-c4ccccc4CN(C)C)cc23)cc1OC` [Example 136], the IC50 on GRK2 was greater than 10000 nM; on GRK5, 100 to 500 nM.

As to `COc1cccc(-c2cnc3[nH]cc(/C=C(\C#N)C(=O)N[C@H](C)c4ccc(OC)c(OC)c4)c3c2)c1` [Example 137, (R,E)-2-cyano-N-(1-(3,4-dimethoxyphenyl)ethyl)-3-(5-(3-methoxyphenyl)-1H-pyrrolo[2,3-b]pyridin-3-yl)acrylamide], the results for the IC50 at GRK2 and at GRK5 were greater than 10000 nM and no more than 50 nM, respectively.

Regarding `COc1ccc([C@@H](C)NC(=O)/C(C#N)=C/c2c[nH]c3ncc(-c4ccc(OCCCN(C)C)cc4)cc23)cc1OC` [Example 138], the IC50 on GRK2 was 500 to 1000 nM; at GRK5 it was no more than 50 nM.

Consider `COc1ccc([C@@H](C)NC(=O)/C(C#N)=C/c2c[nH]c3ncc(-c4ccc(C#N)cc4)cc23)cc1OC` [Example 139], for which the IC50 on GRK2 was greater than 10000 nM; on GRK5 it was 50 to 100 nM.

With `COc1ccc([C@@H](C)NC(=O)/C(C#N)=C\c2c[nH]c3ncc(-c4ccc(C#N)cc4)cc23)cc1OC` [Example 140, (R,Z)-2-cyano-3-(5-(4-cyanophenyl)-1H-pyrrolo[2,3-b]pyridin-3-yl)-N-(1-(3,4-dimethoxyphenyl)ethyl)acrylamide], the IC50 at GRK2 is greater than 10000 nM; at GRK5 it was no more than 50 nM.

With `COc1ccc([C@@H](C)NC(=O)/C(C#N)=C/c2c[nH]c3ncc(-c4cccc(CN5CCN(C(C)=O)CC5)c4)cc23)cc1OC` [Example 141, (R,E)-3-(5-(3-((4-acetylpiperazin-1-yl)methyl)phenyl)-1H-pyrrolo[2,3-b]pyridin-3-yl)-2-cyano-N-(1-(3,4-dimethoxyphenyl)ethyl)acrylamide], the values for the IC50 on GRK2 and on GRK5 were 1000 to 10000 nM and no more than 50 nM, respectively.

For the compound `COc1ccc([C@@H](C)NC(=O)/C(C#N)=C/c2c[nH]c3ncc(-c4ccc(NC(C)=O)cc4)cc23)cc1OC` [Example 142], the IC50 at GRK2 was 1000 to 10000 nM; on GRK5 it was no more than 50 nM.

Consider `COc1ccc([C@@H](C)NC(=O)/C(C#N)=C/c2c[nH]c3ncc(-c4ccncc4)cc23)cc1OC` [Example 143], for which the figures for the IC50 at GRK2 and at GRK5 were 1000 to 10000 nM and no more than 50 nM, respectively.

On to `COc1ccc([C@@H](C)NC(=O)/C(C#N)=C/c2c[nH]c3ncc(-c4ccc5ccccc5c4)cc23)cc1OC` [Example 144], for which the figures for the IC50 on GRK2 and at GRK5 were greater than 10000 nM and 100 to 500 nM, respectively.

Regarding `COc1ccc(-c2cnc3[nH]cc(/C=C(\C#N)C(=O)N[C@H](C)c4ccc(OC)c(OC)c4)c3c2)cc1OC` [Example 145], the results for the IC50 on GRK2 and at GRK5 were greater than 10000 nM and no more than 50 nM, respectively.

For the compound `COc1ccc(-c2cnc3[nH]cc(/C=C(/C#N)C(=O)N[C@H](C)c4ccc(OC)c(OC)c4)c3c2)cc1OC` [Example 146], the IC50 is greater than 10000 nM on GRK2 and 50 to 100 nM at GRK5.

Take `COc1ccc([C@@H](C)NC(=O)/C(C#N)=C/c2c[nH]c3ncc(-c4ccc(N(C)C)nc4)cc23)cc1OC` [Example 147, (R,E)-2-cyano-N-(1-(3,4-dimethoxyphenyl)ethyl)-3-(5-(6-(dimethylamino)pyridin-3-yl)-1H-pyrrolo[2,3-b]pyridin-3-yl)acrylamide]: the values for the IC50 at GRK2 and on GRK5 were 1000 to 10000 nM and no more than 50 nM, respectively.

With `COc1ccc([C@@H](C)NC(=O)/C(C#N)=C/c2c[nH]c3ncc(-c4cccc(CN(C)C)c4)cc23)cc1OC` [Example 148], the IC50 at GRK2 is 1000 to 10000 nM; at GRK5, no more than 50 nM.

In the case of `COc1ccc([C@@H](C)NC(=O)/C(C#N)=C/c2c[nH]c3ncc(-c4cccc(S(=O)(=O)N(C)C)c4)cc23)cc1OC` [Example 149], the values for the IC50 at GRK2 and on GRK5 were 1000 to 10000 nM and no more than 50 nM, respectively.

Take `COc1ccc([C@@H](C)NC(=O)/C(C#N)=C/c2c[nH]c3ncc(-c4cccc5cnn(C)c45)cc23)cc1OC` [Example 150]: the IC50 is greater than 10000 nM on GRK2 and 500 to 1000 nM at GRK5.

`COc1ccc([C@@H](C)NC(=O)/C(C#N)=C/c2c[nH]c3ncc(-c4cccc(NS(C)(=O)=O)c4)cc23)cc1OC` [Example 151, (R,E)-2-cyano-N-(1-(3,4-dimethoxyphenyl)ethyl)-3-(5-(3-(methylsulfonamido)phenyl)-1H-pyrrolo[2,3-b]pyridin-3-yl)acrylamide]: the IC50 on GRK2 was greater than 10000 nM; at GRK5 it was no more than 50 nM.

Take `COc1ccc([C@@H](C)NC(=O)/C(C#N)=C/c2c[nH]c3ncc(-c4cccc(OCCN(C)C)c4)cc23)cc1OC` [Example 152]: the IC50 is 1000 to 10000 nM on GRK2 and no more than 50 nM on GRK5.

On to `COc1ccc([C@@H](C)NC(=O)/C(C#N)=C/c2c[nH]c3ncc(-c4ccc(N5CCN(C)CC5)cc4OC)cc23)cc1OC` [Example 153], for which the figures for the IC50 on GRK2 and on GRK5 were 500 to 1000 nM and no more than 50 nM, respectively.

As for `COc1ccc([C@@H](C)NC(=O)/C(C#N)=C/c2c[nH]c3ncc(-c4ccc(OCCN(C)C)cc4)cc23)cc1OC` [Example 154], the IC50 was 500 to 1000 nM at GRK2 and no more than 50 nM on GRK5.

Turning to `COc1ccc([C@@H](C)NC(=O)/C(C#N)=C/c2c[nH]c3ncc(-c4cnn(C5COC5)c4)cc23)cc1OC` [Example 155], the IC50 was 1000 to 10000 nM on GRK2 and no more than 50 nM on GRK5.

For the compound `COc1ccc([C@@H](C)NC(=O)/C(C#N)=C/c2c[nH]c3ncc(C4=CCCCC4)cc23)cc1OC` [Example 156, (R,E)-2-cyano-3-(5-(cyclohex-1-en-1-yl)-1H-pyrrolo[2,3-b]pyridin-3-yl)-N-(1-(3,4-dimethoxyphenyl)ethyl)acrylamide], the IC50 is greater than 10000 nM on GRK2 and 100 to 500 nM on GRK5.

For `COc1ccc([C@@H](C)NC(=O)/C(C#N)=C/c2c[nH]c3ncc(-c4cnn(CC(C)O)c4)cc23)cc1OC` (some centres unmarked) [Example 157], the figures for the IC50 on GRK2 and on GRK5 were 1000 to 10000 nM and no more than 50 nM, respectively.

For `COc1ccc([C@@H](C)NC(=O)/C(C#N)=C/c2c[nH]c3ncc(C4=CCCC4)cc23)cc1OC` [Example 158, (R,E)-2-cyano-3-(5-(cyclopent-1-en-1-yl)-1H-pyrrolo[2,3-b]pyridin-3-yl)-N-(1-(3,4-dimethoxyphenyl)ethyl)acrylamide], the IC50 is greater than 10000 nM on GRK2 and no more than 50 nM on GRK5.

For `COc1ccc([C@@H](C)NC(=O)/C(C#N)=C/c2c[nH]c3ncc(-c4cnn(Cc5ccccc5)c4)cc23)cc1OC` [Example 159], the IC50 was greater than 10000 nM on GRK2 and 100 to 500 nM on GRK5.

As to `COc1ccc([C@@H](C)NC(=O)/C(C#N)=C/c2c[nH]c3ncc(-c4cnn(CCN5CCOCC5)c4)cc23)cc1OC` [Example 160], the results for the IC50 at GRK2 and at GRK5 were 1000 to 10000 nM and no more than 50 nM, respectively.

With `COc1ccc([C@@H](C)NC(=O)/C(C#N)=C/c2c[nH]c3ncc(-c4cnn(CC(C)C)c4)cc23)cc1OC` [Example 161, (R,E)-2-cyano-N-(1-(3,4-dimethoxyphenyl)ethyl)-3-(5-(1-isobutyl-1H-pyrazol-4-yl)-1H-pyrrolo[2,3-b]pyridin-3-yl)acrylamide], the IC50 is greater than 10000 nM on GRK2 and no more than 50 nM at GRK5.

In the case of `COc1ccc([C@@H](C)NC(=O)/C(C#N)=C/c2c[nH]c3ncc(-c4ccc5nc(C)cn5c4)cc23)cc1OC` [Example 162], the results for the IC50 on GRK2 and on GRK5 were 1000 to 10000 nM and no more than 50 nM, respectively.

As for `COc1ccc([C@@H](C)NC(=O)/C(C#N)=C/c2c[nH]c3ncc(-c4cn[nH]c4)cc23)cc1OC` [Example 163], the IC50 at GRK2 was 1000 to 10000 nM; at GRK5 it was no more than 50 nM.

Take `COc1ccc([C@@H](C)NC(=O)/C(C#N)=C/c2c[nH]c3ncc(-c4cnn(C)c4)cc23)cc1OC` [Example 164]: the IC50 at GRK2 is 1000 to 10000 nM; at GRK5, no more than 50 nM.

In the case of `COc1ccc([C@@H](C)NC(=O)/C(C#N)=C/c2c[nH]c3ncc(-c4cnn(C5CCN(C(=O)OC(C)(C)C)CC5)c4)cc23)cc1OC` [Example 165], the IC50 at GRK2 fell in the range of 1000 to 10000 nM; on GRK5 it was 50 to 100 nM.

On to `COc1ccc([C@@H](C)NC(=O)/C(C#N)=C/c2c[nH]c3ncc(-c4cn(C)cn4)cc23)cc1OC` [Example 166, (R,E)-2-cyano-N-(1-(3,4-dimethoxyphenyl)ethyl)-3-(5-(1-methyl-1H-imidazol-4-yl)-1H-pyrrolo[2,3-b]pyridin-3-yl)acrylamide], for which the results for the IC50 on GRK2 and on GRK5 were 1000 to 10000 nM and no more than 50 nM, respectively.
